This test relates to Phosphorylation of STAT6 in human PBMC (CD19+ B cells). Put plainly: Phosphorylated STAT6 (pSTAT6) flow cytometry assay in human PBMC, IL-4 stimulated. Type of test: cell-based. The settings on record: compound 1 hour, 1 ng/ml IL-4 for 15 minutes, read-out: STAT6 IL4 pSTAT6 assay in PBMC: Average IC50. In short, it runs like this: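 Human PBMC preincubated 1 h at 37 °C with compound (9-point 1:3 series, top up to 30 μM), then stimulated with 1 ng/ml IL-4 for 15 min. After fixation, methanol permeabilization and staining, pSTAT6 quantified in CD19+ B cells by flow cytometry; four-parameter fit of inhibition.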
Background: A flow cytometer gives signals particle by particle.

One may read the IC50 as the concentration at which inhibition is half-maximal.

For `CN(C)C(=O)c1cc2ncc(C3=CCCN(C(=O)CCn4ccnn4)C3)cc2[nH]1` [Example I-194], the concentration for half-maximal inhibition (IC50) is over 100 µM.
As to `CN(C)C(=O)c1cc2cc(C3CCC(CO)N(C(=O)CCn4ccnn4)C3)ccc2o1` (stereo not drawn) [Example I-155], the IC50 was over 100 µM.
To `CN(C)C(=O)c1cc2cc(C3=CCCN(C(=O)CCn4ccc5ccccc54)C3)ccc2o1` [Example I-264] belongs over 100 µM.
Consider `CN(C)C(=O)c1cc2cc(C3=CCCN(C(=O)CCn4ccnn4)C3)cnc2[nH]1` [Example I-222], for which the IC50 fell in the range of 10 to 100 µM.
For the molecule `CN(C)C(=O)c1cc2ccc(C3=CCCN(C(=O)COc4ccc(C(=O)O)cc4)C3)cc2[nH]1` [Example I-67], the IC50 lay in the range of 10 to 100 µM.
With `CN(C)C(=O)c1cc2ccc(C3=CCCN(C(=O)C4(c5ccc(Cl)cc5)CC(O)C4)C3)cc2[nH]1` (stereo not drawn) [Example I-78], the IC50 was over 100 µM.
In the case of `CN(C)C(=O)c1cc2ccc(C3=CCCN(C(=O)CCc4ccn(C)n4)C3)cc2[nH]1` [Example I-10], the IC50 was over 100 µM.
In the case of `CN(C)C(=O)c1cc2ccc(C3=CCCN(C(=O)c4ccc5c(n4)OCCO5)C3)cc2[nH]1` [Example I-58], the IC50 was over 100 µM.
Regarding `CN(C)C(=O)c1cc2ccc(C3=CCCN(C(=O)CCC(=O)O)C3)cc2[nH]1` [Example I-112], the IC50 is over 100 µM.
Consider `Cc1ccccc1OCc1ccccc1C(=O)N1CCC=C(c2ccc3cc(C(=O)N(C)C)[nH]c3c2)C1` [Example I-106], for which the IC50 was 1 to 10 µM.
To `COC(=O)[C@H]1CC[C@@H](c2ccc3oc(C(=O)N(C)C)cc3c2)CN1C(=O)CCn1ccnn1` (single isomer, unassigned) [Example I-151] belongs over 100 µM; to `CN(C)C(=O)c1cc2cc(C3=CCCN(C(=O)CCc4ccc5c(c4)OCO5)C3)ccc2o1` [Example I-282], over 100 µM; to `CN(C)C(=O)c1cc2ccc(C3=CCCN(C(=O)C4CC(=O)N4)C3)cc2[nH]1` (stereo not drawn) [Example I-30], 10 to 100 µM.
As for `CN(C)C(=O)c1cc2cc(C3=CCCN(C(=O)CCn4nnc5ccccc54)C3)ccc2o1` [Example I-217], the IC50 is over 100 µM.
As to `CN(C)C(=O)c1cc2cc(C3=CCCN(C(=O)CCn4cnc5ccccc54)C3)ccc2o1` [Example I-265], the IC50 was over 100 µM.
Take `CN(C)C(=O)c1cc2ccc(C3=CCCN(C(=O)[C@@H]4C[C@H](c5ccccc5)CN4)C3)cc2[nH]1` [Example I-76]: the IC50 is over 100 µM.
Regarding `COC(=O)CCC#Cc1cc(C2=CCCN(C(=O)C3Cc4ccccc4CN3C=O)C2)cc2cc(C(=O)N(C)C)oc12` (stereo not drawn) [Example I-184], the IC50 lay in the range of 10 to 100 µM.
The value for `CN(C)C(=O)c1cc2cc(C3=CCCN(C(=O)CCc4cccc5ccccc45)C3)ccc2o1` [Example I-291] was over 100 µM; that for `CNc1ccc(-c2cc(C3=CCCN(C(=O)CCn4ccnn4)C3)cc3[nH]c(C(=O)N(C)C)cc23)c(OC)c1` [Example I-117] was under 0.1 µM.
As to `CC(=O)NC(Cc1cccc(F)c1)C(=O)N1CCC=C(c2ccc3cc(C(=O)N(C)C)[nH]c3c2)C1` (stereo not drawn) [Example I-82], the IC50 was in the range of 10 to 100 µM.
For the molecule `CN(C)C(=O)c1cc2c(-c3ccc(O)cc3)cc(C3=CCCN(C(=O)CCn4ccnn4)C3)cc2[nH]1` [Example I-22], the half-inhibitory concentration (IC50) is 0.1 to 1 µM.
Take `CN(C)C(=O)c1cc2cc(C3=CCCN(C(=O)Cc4nc5ccccc5[nH]4)C3)ccc2o1` [Example I-245]: the IC50 was over 100 µM.
Regarding `CN(C)C(=O)c1cc2cc(C3=CCCN(C(=O)Cc4n[nH]c5ccccc45)C3)ccc2o1` [Example I-302], the IC50 is over 100 µM.
In the case of `CN(C)C(=O)c1cc2ccc(C3=CCCN(C(=O)c4nonc4C4CC4)C3)cc2[nH]1` [Example I-44], the 50% inhibitory concentration (IC50) lay within 10 to 100 µM.
Regarding `CC(C(=O)N1CCC=C(c2ccc3cc(C(=O)N(C)C)[nH]c3c2)C1)n1ccccc1=O` (stereo not drawn) [Example I-53], the IC50 fell in the range of 1 to 10 µM.
For `CN(C)C(=O)c1cc2cc(C3=CCCN(C(=O)C4Cc5c(N)cccc5CN4C=O)C3)ccc2o1` (stereo not drawn) [Example I-8], the IC50 fell in the range of 0.1 to 1 µM.
In the case of `CN(C)C(=O)c1cc2ccc(C3=CCCN(C(=O)[C@@H](N)Cc4cccc(F)c4)C3)cc2[nH]1` [Example I-65], the IC50 was over 100 µM.
The value for `CN(C)C(=O)c1cc2ccc(C3=CCCN(C(=O)CCCn4c(=O)[nH]c5ccccc54)C3)cc2[nH]1` [Example I-85] was over 100 µM; that for `O=C(CCn1ccnn1)N1CCC=C(c2ccc3oc(C(=O)N4CCCCC4)cc3c2)C1` [Example I-128] was 10 to 100 µM.
In the case of `CN(C)C(=O)c1cc2ccc(C3=CCCN(C(=O)CCn4ccnn4)C3)cc2s1` [Example I-269], the half-maximal inhibitory concentration (IC50) lay in the range of 10 to 100 µM.
Turning to `CN(C)C(=O)c1cc2cc(C3=CCCN(C(=O)Cn4cccn4)C3)ccc2o1` [Example I-261], the IC50 is over 100 µM.
To `CN(C)C(=O)c1cc2cc([C@@H]3CC[C@H](CO)N(C(=O)CCn4ccnn4)C3)ccc2o1` (single isomer, unassigned) [Example I-156] belongs over 100 µM; to `COC(=O)CCC#Cc1cccc2c1CC(C(=O)N1CCC=C(c3ccc4oc(C(=O)N(C)C)cc4c3)C1)N(C=O)C2` (stereo not drawn) [Example I-175], 1 to 10 µM; to `CN(C)C(=O)c1cc2cc(C3=CCCN(C(=O)Cc4nc5ccccc5s4)C3)ccc2o1` [Example I-221], over 100 µM.
For `CN(C)C(=O)c1cc2cc(C3=CCCN(C(=O)Cc4ccc5c(c4)CN(C(=O)OC(C)(C)C)CC5)C3)ccc2o1` [Example I-259], the IC50 is over 100 µM.
For the molecule `CN(C)C(=O)c1cc2ccc(C3=CCCN(C(=O)C(c4ccc(F)cc4)c4ccc(F)cc4)C3)cc2[nH]1` [Example I-160], the IC50 was over 100 µM.
To `CN(C)C(=O)c1cc2cc(C3=CCCN(C(=O)CCc4nncc5ccccc45)C3)ccc2o1` [Example I-168] belongs over 100 µM.
Take `O=C(CCn1ccnn1)N1CCC=C(c2ccc3occc3c2)C1` [Example I-278]: the IC50 is over 100 µM.
To `O=C(CCn1ccnn1)N1CCC=C(c2ccc3cc(C(=O)N4CCC4)[nH]c3c2)C1` [Example I-125] belongs over 100 µM; to `CN(C)C(=O)c1cc2cc(C3=CCCN(C(=O)Cc4cnccn4)C3)ccc2o1` [Example I-246], over 100 µM; to `Cc1cc(Cl)c(S(C)(=O)=O)cc1C(=O)N1CCC=C(c2ccc3cc(C(=O)N(C)C)[nH]c3c2)C1` [Example I-74], 10 to 100 µM.
Take `CC(Oc1ccccn1)C(=O)N1CCC=C(c2ccc3cc(C(=O)N(C)C)[nH]c3c2)C1` (stereo not drawn) [Example I-54]: the IC50 is 10 to 100 µM.
Consider `CN(C)C(=O)c1cc2ccc(C3=CCCN(C(=O)c4[nH]nc5c4CS(=O)(=O)C5)C3)cc2[nH]1` [Example I-57], for which the IC50 is 10 to 100 µM.
For `CN(C)C(=O)c1cc2cc(C3=CCCN(C(=O)C4Cc5c(cccc5OCCN)CN4C=O)C3)ccc2o1` (stereo not drawn) [Example I-171], the IC50 lay within 10 to 100 µM.
As for `CN(C)C(=O)c1cc2ccc(C3=CCCN(C(=O)C45CC(C(F)(F)F)(C4)C5)C3)cc2[nH]1` [Example I-55], the IC50 lay within 10 to 100 µM.
Turning to `CNCc1cccc2c1CC(C(=O)N1CCC=C(c3ccc4oc(C(=O)N(C)C)cc4c3)C1)N(C=O)C2` (stereo not drawn) [Example I-148], the IC50 is over 100 µM.
Consider `CN(C)C(=O)c1cc2ccc(C3=CCCN(C(=O)Cc4c[nH]nn4)C3)cc2[nH]1` [Example I-38], for which the IC50 is over 100 µM.
For `CN(C)C(=O)c1cc2ccc(C3=CCCN(C(=O)CCn4ccnn4)C3)cn2n1` [Example I-298], the IC50 was over 100 µM.

The record behind these values is patent US20250214977A1, “STAT6 INHIBITORS AND USES THEREOF” (Kymera Therapeutics, Inc., priority 2024, published 2025).
